Measured values published in PMC4636305, “Identification of Small-Molecule Inhibitors against Meso-2, 6-Diaminopimelate Dehydrogenase from Porphyromonas gingivalis” (PLoS ONE, 2015).
≈ marks a conversion by molar mass, not a printed value. Entries after “also recorded” stand apart in the source; their conditions may differ. Read-outs that look alike come from different tables or passages of the source. One block for each compound: values may come before it. Residues, ends and D or L forms follow the SMILES beside them.

Experiments:
[1] = molecular target: Meso-diaminopimelate dehydrogenase (m-Ddh) from P. gingivalis (Porphyromonas gingivalis, UniProt Q7MW40); assay: m-Ddh kinetic assay, inhibitor screening and IC50 determination; assay type: biochemical; settings: for IC50: 400 μM m-DAP, 180 μM NADP+, pH 10.5, 25°C, three independent experiments; for IC50 with addition of Triton-X 100 versus without: .01% Triton-X 100, test for aggregation-based inhibition; for inhibition at 3000 µM: read-out: % inhibition of enzymatic activity at 3 mM
Meso-diaminopimelate dehydrogenase (m-Ddh) from P. gingivalis, sequence (Q7MW40 entry or part of it): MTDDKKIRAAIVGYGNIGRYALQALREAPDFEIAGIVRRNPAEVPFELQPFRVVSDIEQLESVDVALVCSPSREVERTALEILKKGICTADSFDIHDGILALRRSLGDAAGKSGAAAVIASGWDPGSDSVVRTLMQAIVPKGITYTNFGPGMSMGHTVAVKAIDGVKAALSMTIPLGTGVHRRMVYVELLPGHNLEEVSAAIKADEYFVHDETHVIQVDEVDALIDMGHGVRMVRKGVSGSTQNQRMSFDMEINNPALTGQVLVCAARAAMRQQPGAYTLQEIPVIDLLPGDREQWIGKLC
Method: (§1) The enzymatic activity for m-Ddh was determined by observing the standard oxidative deamination reaction of the substrate meso-diaminopimelate. The reaction contained 400 μM of meso-diaminopimelate (Sigma-Aldrich, St. Louis, MO), 180 μM NADP^+ (Sigma-Aldrich, St. Louis, MO), 200 mM glycine-KCl-KOH buffer (pH 10.5), and the enzyme in a final volume of 1 ml. The reaction was initiated with the addition of NADP^+. The reaction velocity was calculated from the increase in absorbance at 340 nm, spectrophotometrically monitored at 25°C, where one unit of enzyme was defined as the amount of enzyme catalyzing the formation of […] of NADPH per min.
A range of concentrations (0–3 mM) of each small-molecule compound inhibitor were added to the standard reaction and the percent of m-Ddh enzymatic inhibition was measured by the kinetic assay described above. Percent inhibition was determined by the formula: (rateofreactionnoinhibitor)−(rateofreactioninhibitor)/rateofreactionnoinhibitor×100. The concentration of each compound inhibitor which caused 50% enzymatic inhibition (IC50) was calculated using PRISM v6.04 software (Graphpad, San Diego, CA) from three independent experiments.

P. gingivalis [2] = assay: MIC, broth microdilution; assay type: cell-based, Porphyromonas gingivalis
Method: Minimal Inhibitory Concentration (MIC) assays were performed using a broth microdilution method. P. gingivalis cells were grown overnight and the following day diluted 1/10 into fresh medium. Cells were allowed to grow to mid-log phase (OD600 ≈ 0.5). Compounds were serially diluted in 96-well microtiter plates (Jet Biofil, Genesee Scientific, San Diego, CA) and an aliquot of the cell suspension was added to each well with the compound inhibitor sample for a final cell count of 1×10^5 CFU/ml. Plates were incubated for five days at 37°C in anaerobic conditions.

P. gingivalis [3] = assay: MBC, plating of MIC wells without visible growth; assay type: cell-based, Porphyromonas gingivalis; settings: for MBC: Porphyromonas gingivalis, 168 h, plated 7 days, anaerobic, n = 3
Method: Samples were plated on tryptic soy agar plates supplemented with 5% sheep blood (Becton, Dickinson, Franklin Lakes, NJ) and incubated at 37°C in anaerobic conditions for 7 days.

S. sanguinis = assay: MIC, broth microdilution; assay type: cell-based, Streptococcus sanguinis; settings: for MIC: Streptococcus sanguinis, S. sanguinis, lacks the target m-Ddh, n = 3; for S. sanguinis MIC relative to MIC of P. gingivalis: selectivity
P. gingivalis [4] = assay: Time-kill assay; assay type: cell-based, Porphyromonas gingivalis; settings: for reduction of viable P. gingivalis cell count: 5× MIC
Method: P. gingivalis cells were grown overnight and the following day diluted 1/10 into fresh medium. Cells were allowed to grow to mid-log phase (OD600 ≈ 0.5) then diluted to a final cell suspension of 1×10^5 CFU/ml. Compounds were added at a concentration of 5x the MIC determined from the 96-well broth microdilution assay. Samples were taken at different time intervals (0, 0.25, 0.5, 1, 2, 3, 4, 6 and 24 hours) and plated on tryptic soy agar plates supplemented with 5% sheep blood (Becton, Dickinson, Franklin Lakes, NJ) using an automated Eddy Jet spiral plater (Neutec Group, Farmingdale, NY). Plates were incubated at 37°C in anaerobic conditions for 7 days.

P. gingivalis cells = assay: SEM analysis of compound exposed cells; assay type: cell-based, Porphyromonas gingivalis; settings: treated P. gingivalis cells; Compounds 4 and 5 at 5x MIC
Method: Untreated or treated P. gingivalis cells were deposited onto a 0.1 μm disposable Millipore filter to remove medium, and samples were fixed using 2% glutaraldehyde in 0.1 M sodium cacodylate buffer (pH 7.4) for 30 min, followed by 1% osmium tetroxide in 0.1 M sodium cacodylate buffer (pH 7.4). Samples embedded in the filters were then dehydrated in ethanol followed by hexamethyldisilazane (HMDS) and allowed to air-dry. The filters were sectioned and mounted onto stubs and coated with gold for three minutes (EMS– 550 Automated Sputter Coater, Electron Microscopy Sciences, Hatfield, PA). Micrographs were taken at 30,000× total magnification using a Zeiss EVO 50 XVP scanning electron microscope (Carl Zeiss, Peabody, MA).

m-Ddh [5] = assay: Determination of kinetic parameters of m-Ddh; assay type: biochemical, Porphyromonas gingivalis; settings: pH 10.5, 25°C, other substrate held at 0.5 mM; for Km: read-out: apparent Km
Method: as §1
Initial velocity measurements for m-DAP and NADP^+ were determined at 25°C in a similar reaction for the standard oxidative deamination reaction assay. The reaction contained 200 mM glycine-KCl-KOH buffer (pH 10.5) with m-DAP as the variable substrate with concentrations between 0.001 mM and 1 mM and NADP^+ held constant at a saturating concentration of 0.5 mM or NADP^+ as the variable substrate with concentrations between 0.01 mM to 1 mM and m-DAP held constant at 0.5 mM. Km and Vmax values were determined through non-linear fitting. All assays were performed in triplicates and non-linear fitting Michaelis-Menten data were calculated from Graphpad Prism version 5.04 (Graphpad, San Diego, CA).

m-Ddh [6] = test system: m-Ddh; set-up: method as in PMID 21616177; settings: C. thermocellum m-Ddh; cited from earlier work
[7] = compound at 3 mM, initial screen
[8] = Porphyromonas gingivalis, 120 h, five days, 37°C, anaerobic, n = 3

- IC50 [1]: 157 ± 26 µM
- IC50 with addition of Triton-X 100 versus without [1]: no difference in activity
- inhibition at 3000 µM [1, 7]: ≥ 90%
- MIC (P. gingivalis [2]; [8]): 250 µM (≈ 113 µg/mL)
- MBC to MIC ratio (P. gingivalis [3]): less than 4
- MIC (S. sanguinis): 1740 µM (≈ 784 µg/mL)
- S. sanguinis MIC relative to MIC of P. gingivalis (S. sanguinis): 7 ×
SMILES: COc1ccc(S(=O)(=O)Nc2nc3ccccc3nc2Nc2cccc(C(=O)O)c2)cc1 [Compound 4]
- MBC (P. gingivalis [3]): 374 µM (≈ 168 µg/mL)
- P. gingivalis cell count (P. gingivalis [4]; 5x MIC, after six hours of treatment): maintained a low cell count
- reduction of viable P. gingivalis cell count (P. gingivalis [4]; within 6 h of exposure): 2 log10 CFU /ml
- cellular structure by SEM (P. gingivalis cells): alteration of the cellular structure

- IC50 [1]: 310 ± 23 µM
- IC50 with addition of Triton-X 100 versus without [1]: no difference in activity
- inhibition at 3000 µM [1, 7]: ≥ 90%
- MIC (P. gingivalis [2]; [8]): 167 µM (≈ 72.9 µg/mL)
- MIC (P. gingivalis [2]; five days, 37°C, anaerobic, n = 3): 167 µM (≈ 72.7 µg/mL)
- MBC to MIC ratio (P. gingivalis [3]): less than 4
- MIC (S. sanguinis): 305 µM (≈ 133 µg/mL)
- S. sanguinis MIC relative to MIC of P. gingivalis (S. sanguinis): almost double
SMILES: Cc1cc(S(=O)(=O)Nc2cc(SCCC(=O)O)c(O)c3ccccc23)ccc1F [Compound 5]
- MBC (P. gingivalis [3]): 254 µM (≈ 111 µg/mL)
- P. gingivalis cell viability (P. gingivalis [4]; 5x MIC, after two hours of exposure): no viable cell count; also recorded: complete elimination
- reduction of viable P. gingivalis cell count (P. gingivalis [4]; after 2 h of exposure): 5 log10 CFU/ml
- cellular structure by SEM (P. gingivalis cells): alteration of the cellular structure

- IC50 [1]: 356 ± 16 µM
- IC50 with addition of Triton-X 100 versus without [1]: no difference in activity
- inhibition at 3000 µM [1, 7]: ≥ 90%
- MIC (P. gingivalis [2]; [8]): 2820 µM (≈ 1130 µg/mL)
- MIC (P. gingivalis [2]; Porphyromonas gingivalis, bound stated): > 2000 µM
- MIC (S. sanguinis): 3310 µM (≈ 1330 µg/mL)
SMILES: O=C(O)CCC(=O)Nc1ccc(S(=O)(=O)Nc2cnc3ccccc3n2)cc1 [Compound 6]

- IC50 [1]: 1160 ± 175 µM
- inhibition at 3000 µM [1, 7]: ≥ 90%
SMILES: CCC[C@@H]1CN(c2nc(C)ccc2C(=O)O)C[C@H]1C(=O)O [Compound 7]

- % inhibition of enzymatic activity at 3 mM [1, 7]: No inhibition at 3 mM
SMILES: NCc1[nH]cc(CCC(=O)O)c1CC(=O)O [Compound 8]

- % inhibition of enzymatic activity at 3 mM [1, 7]: No inhibition at 3 mM
SMILES: O=C(O)c1sccc1S(=O)(=O)Nc1cccc2[nH]ncc12 [Compound 9]

SMILES: N[C@@H](CC(=O)O)C(=O)N[C@@H](Cc1ccccc1)C(=O)O [Compound 10] (H-Asp-Phe-OH)
- inhibition at 3000 µM [1]: 2%

- inhibition at 3000 µM [1, 7]: 13%
SMILES: O=C(O)CCCC(O)(O)C(=O)O [Compound 11]

- % inhibition of enzymatic activity at 3 mM [1, 7]: No inhibition at 3 mM
SMILES: O=C(O)c1cccc(S(=O)(=O)Nc2ccnc(Sc3ccccn3)c2)c1 [Compound 12]

- inhibition at 3000 µM [1, 7]: 6%
SMILES: O=C(O)c1cccc(NS(=O)(=O)c2ccc(O)c(C(=O)O)c2)c1 [Compound 13]

- inhibition at 3000 µM [1, 7]: 17%
SMILES: Cc1n[nH]c(C)c1S(=O)(=O)Nc1cccc(NS(=O)(=O)c2ccccc2)c1 [Compound 14]

SMILES: NC(=O)c1ccc[n+]([C@@H]2O[C@H](COP(=O)([O-])OP(=O)(O)OC[C@H]3O[C@@H](n4cnc5c(N)ncnc54)[C@H](OP(=O)(O)O)[C@@H]3O)[C@@H](O)[C@H]2O)c1 [NADP^+]
- Vmax (m-Ddh [5]): 91.95 nmol/s
- Km (m-Ddh [5]): 60 µM
- Km (m-Ddh [6]): 90 µM

SMILES: CC1(C)S[C@@H]2[C@H](NC(=O)[C@H](N)c3ccccc3)C(=O)N2[C@H]1C(=O)O [ampicillin, reference compound]
- cellular structure by SEM (P. gingivalis cells): altered morphology

SMILES: N[C@H](CCC[C@H](N)C(=O)O)C(=O)O [m-DAP, meso-diaminopimelate]
- Vmax (m-Ddh [5]): 130.1 nmol/s
- Km (m-Ddh [5]): 370 µM
